Source: paper PMC10223019, “Preclinical Evaluation of a PSMA-Targeting Homodimer with an Optimized Linker for Imaging of Prostate Cancer” (Molecules, 2023)

Columns and labels:
[1] = Stability in phosphate-buffered saline (PBS), radio-HPLC; assay type: physicochemical; settings: 24 h post-incubation, 37 °C, indium-111 labeled, intact fraction
Experimental: [^111In]In-22 or [^111In]In-30 (~10 MBq, 20 µL) was mixed with 80 μL of PBS (0.01 M, pH 7.4) and incubated at 37 °C for up to 24 h. A sample of the PBS solution was loaded directly onto the radio-HPLC at 1, 4, and 24 h post-incubation.

[2] = system: BALB/c nude mice bearing LS174T PSMA-positive tumor xenografts; test: Ex vivo biodistribution studies; assay type: in vivo
Experimental: Animal experiments were performed in 8–10 weeks old male BALB/c nude mice (Janvier Labs, Le Genest-Saint-Isle, France). Animals were housed in individually ventilated cages (Blue line IVC, 4 mice per cage) under nonsterile standard conditions with cage enrichment present and free access to chlorophyll-free animal chow (Sniff GmbH, Soest, Germany) and water and acclimated for 1 week before experiments. Mice were subcutaneously inoculated with 4.0 × 10^6 LS174T cells in the right flank, diluted in 100 μL of cell suspension. Seven days after tumor cell inoculation, when xenografts were approximately 0.2–0.3 cm^3, the tracers were injected intravenously via the tail vein. All experiments were approved by the institutional Animal Welfare Committee and were conducted in accordance with the guidelines of the Revised Dutch Act on Animal Experimentation (WOD).
Mice were intravenously injected with ~1 nmol of either [^111In]In-PSMA-617, [^111In]In-22 or [^111In]In-30 with molar activity of 5 MBq/nmol for ex vivo biodistribution studies. Mice (n = 4/timepoint) were euthanized by cervical dislocation at 1, 4, and 24 h p.i. A block group was included, and mice were euthanized at 4 h p.i. Organs were collected in tubes and counted in the gamma counter, where the calibration factor was determined by measuring different known activities of indium-111.

[3] = system: PSMA expressing LS174T cells; test: Internalization and cell uptake assay; assay type: cell-based, human; settings: 2 h 37 °C
Experimental: LS174T human colon carcinoma cells transfected with human PSMA were obtained from Dr. Sandra Heskamp (Radboud UMC, Nijmegen). Cells were cultured in RPMI-1640 media supplemented with 2 mM glutamine, 10% fetal bovine serum (FBS) and 0.3 mg/mL G418 (Geneticin, Sigma Aldrich, St. Louis, MO, USA).
Cells were seeded (1.2 × 10^6 cells/well) and cultured to confluency for 24 h prior to experiments. We prepared 10^−9 M solutions of [^111In]In-PSMA-617, [^111In]In-22, and [^111In]In-30 in internalization media (RPMI, 20 mM HEPES, 1% BSA, pH 7.4). The media were removed from each well, and they were rinsed twice with PBS at rt. 2 mL of the radioactive compound was then added to each well and incubated at 37 °C for 2 h. For the internalization assay, the media containing radioactive compound were removed, and each well was washed twice with cold PBS. A total of 1 mL of Glycine buffer (50 mM glycine, 100 mM NaCl, pH 2.8) was added immediately and incubated for 10 min at rt. The glycine wash was then collected into counting tubes (membrane-bound fraction). An extra wash was performed and collected in the same tubes. A total of 1 mL of NaOH (1 M) was then added to each tube and left for 15 min at rt. The lysate (internalized fraction) was then collected in separate counting tubes, together with one extra NaOH wash. Data were normalized to 1,000,000 cells and percentage added dose.

[4] = LogD7.4 by shake-flask method (PBS/n-octanol); assay type: physicochemical; settings: LogD7.4, PBS pH 7.4/n-octanol, indium-111 labeled compound
Experimental: The distribution coefficients (LogD7.4 values) were determined by a shake-flask method, in which 2 μL (~0.5 MBq) of the labeling solution ([^111In]In-22 or [^111In]In-30) were added to an Eppendorf tube containing 1 mL of PBS (0.01 M, pH 7.4)/n-octanol (v/v, 1:1). After vigorous vortexing, the solution was centrifuged at 2500× g for 15 min for phase separation. Samples (3 × 10 μL) of the two phases were taken out and measured in a gamma counter. LogD7.4 values were calculated by using the following equation: LogD7.4 = log [(counts in octanol phase)/(counts in aqueous phase)] and the experiment was performed in triplicate.

[5] = Stability in mouse serum, radio-HPLC; assay type: in vitro ADME
Experimental: [^111In]In-22 or [^111In]In-30 (~35 MBq, 70 µL) was mixed with 330 μL of mouse serum and incubated at 37 °C for up to 24 h. After 1, 4, and 24 h incubation, 50 μL of the mouse serum solution was added to a separate vial containing 50 µL of acetonitrile. The sample was centrifuged at 5000× g for 20 min. The supernatant was analyzed by radio-HPLC.

[6] = 4 h p.i. block group (excess unlabeled PSMA ligand)

CC(C)C[C@H](NC(=O)[C@H](Cc1ccccc1)NC(=O)[C@H](CC(=O)O)NC(=O)CCC(C(=O)O)N1CCN(CC(=O)[O-])CCN(CC(=O)[O-])CCN(CC(=O)[O-])CC1)[C@@H](O)CC(=O)NCCCCCC(=O)NCCCC[C@H](NC(=O)N[C@@H](CCC(=O)O)C(=O)O)C(=O)O.[111In+3] (stereo partly drawn) [[^111In]In-22]
Stability in PBS (%) [1]: 95.4% | Tumor-to-muscle (T/M) ratio ([2]; 1 h p.i.): 31 | Blood uptake ([2]; 1 h p.i., i.v. ~1 nmol): 0.14 ± 0.01 % ID/g | Bone uptake ([2]; 1 h p.i., i.v. ~1 nmol): 0.20 ± 0.01 % ID/g | Heart uptake ([2]; 1 h p.i., i.v. ~1 nmol): 0.13 ± 0.05 % ID/g | Intestines uptake ([2]; 1 h p.i., i.v. ~1 nmol): 0.26 ± 0.17 % ID/g | Kidney uptake ([2]; 1 h p.i., i.v. ~1 nmol): 22.56 ± 2.59 % ID/g | Liver uptake ([2]; 1 h p.i., i.v. ~1 nmol): 0.17 ± 0.03 % ID/g | Lung uptake ([2]; 1 h p.i., i.v. ~1 nmol): 0.45 ± 0.07 % ID/g | Muscle uptake ([2]; 1 h p.i., i.v. ~1 nmol): 0.07 ± 0.01 % ID/g | Pancreas uptake ([2]; 1 h p.i., i.v. ~1 nmol): 0.22 ± 0.03 % ID/g | Prostate uptake ([2]; 1 h p.i., i.v. ~1 nmol): 0.51 ± 0.25 % ID/g | Skin uptake ([2]; 1 h p.i., i.v. ~1 nmol): 0.44 ± 0.16 % ID/g | Spleen uptake ([2]; 1 h p.i., i.v. ~1 nmol): 1.82 ± 0.37 % ID/g | Stomach uptake ([2]; 1 h p.i., i.v. ~1 nmol): 0.11 ± 0.01 % ID/g | Tumor uptake ([2]; 1 h p.i., i.v. ~1 nmol): 2.05 ± 0.52 % ID/g | Tumor-to-muscle (T/M) ratio ([2]; 4 h p.i.): 48 | Blood uptake [2, 6]: 0.02 ± 0.00 % ID/g | Bone uptake [2, 6]: 0.23 ± 0.13 % ID/g | Heart uptake [2, 6]: 0.04 ± 0.01 % ID/g | Intestines uptake [2, 6]: 0.27 ± 0.03 % ID/g | Kidney uptake [2, 6]: 8.20 ± 0.67 % ID/g | Liver uptake [2, 6]: 0.09 ± 0.00 % ID/g | Lung uptake [2, 6]: 0.09 ± 0.01 % ID/g | Muscle uptake [2, 6]: 0.03 ± 0.01 % ID/g | Pancreas uptake [2, 6]: 0.04 ± 0.01 % ID/g | Prostate uptake [2, 6]: 0.09 ± 0.01 % ID/g | Skin uptake [2, 6]: 0.24 ± 0.07 % ID/g | Spleen uptake [2, 6]: 0.09 ± 0.00 % ID/g | Stomach uptake [2, 6]: 0.17 ± 0.13 % ID/g | Tumor uptake [2, 6]: 0.27 ± 0.14 % ID/g | Blood uptake ([2]; 4 h p.i., i.v. ~1 nmol): 0.02 ± 0.01 % ID/g | Bone uptake ([2]; 4 h p.i., i.v. ~1 nmol): 0.11 ± 0.06 % ID/g | Heart uptake ([2]; 4 h p.i., i.v. ~1 nmol): 0.04 ± 0.01 % ID/g | Intestines uptake ([2]; 4 h p.i., i.v. ~1 nmol): 0.30 ± 0.05 % ID/g | Kidney uptake ([2]; 4 h p.i., i.v. ~1 nmol): 13.55 ± 1.04 % ID/g | Liver uptake ([2]; 4 h p.i., i.v. ~1 nmol): 0.10 ± 0.01 % ID/g | Lung uptake ([2]; 4 h p.i., i.v. ~1 nmol): 0.12 ± 0.03 % ID/g | Muscle uptake ([2]; 4 h p.i., i.v. ~1 nmol): 0.03 ± 0.02 % ID/g | Pancreas uptake ([2]; 4 h p.i., i.v. ~1 nmol): 0.06 ± 0.03 % ID/g | Prostate uptake ([2]; 4 h p.i., i.v. ~1 nmol): 0.18 ± 0.17 % ID/g | Skin uptake ([2]; 4 h p.i., i.v. ~1 nmol): 0.24 ± 0.18 % ID/g | Spleen uptake ([2]; 4 h p.i., i.v. ~1 nmol): 0.30 ± 0.09 % ID/g | Stomach uptake ([2]; 4 h p.i., i.v. ~1 nmol): 0.09 ± 0.06 % ID/g | Tumor uptake ([2]; 4 h p.i., i.v. ~1 nmol): 1.23 ± 0.59 % ID/g | Tumor-to-muscle (T/M) ratio ([2]; 24 h p.i.): 14 | Bone uptake ([2]; 24 h p.i., i.v. ~1 nmol): 0.13 ± 0.04 % ID/g | Heart uptake ([2]; 24 h p.i., i.v. ~1 nmol): 0.03 ± 0.01 % ID/g | Intestines uptake ([2]; 24 h p.i., i.v. ~1 nmol): 0.04 ± 0.02 % ID/g | Kidney uptake ([2]; 24 h p.i., i.v. ~1 nmol): 5.89 ± 1.49 % ID/g | Liver uptake ([2]; 24 h p.i., i.v. ~1 nmol): 0.06 ± 0.01 % ID/g | Lung uptake ([2]; 24 h p.i., i.v. ~1 nmol): 0.05 ± 0.01 % ID/g | Muscle uptake ([2]; 24 h p.i., i.v. ~1 nmol): 0.03 ± 0.00 % ID/g | Pancreas uptake ([2]; 24 h p.i., i.v. ~1 nmol): 0.03 ± 0.01 % ID/g | Prostate uptake ([2]; 24 h p.i., i.v. ~1 nmol): 0.08 ± 0.03 % ID/g | Skin uptake ([2]; 24 h p.i., i.v. ~1 nmol): 0.15 ± 0.01 % ID/g | Spleen uptake ([2]; 24 h p.i., i.v. ~1 nmol): 0.09 ± 0.02 % ID/g | Stomach uptake ([2]; 24 h p.i., i.v. ~1 nmol): 0.02 ± 0.01 % ID/g | Tumor uptake ([2]; 24 h p.i., i.v. ~1 nmol): 0.61 ± 0.40 % ID/g | Tumor uptake ([2]; 24 h p.i., i.v. ~1 nmol, listed as [111In]In-22): 0.41 ± 0.08 % ID/g | Internalized fraction ([3]; 10^-9 M, NaOH lysate): 0.53 ± 0.08 % AD | Membrane-bound uptake ([3]; 10^-9 M, glycine wash): 1.02 ± 0.15 % AD | Total uptake ([3]; 10^-9 M, normalized to 1,000,000 cells): 1.55 ± 0.21 % AD | Internalized fraction as share of total uptake (internalization) [3]: 34.2% | Membrane-bound uptake as share of total uptake [3]: 66% | Membrane-bound uptake as share of total uptake ([3]; listed as [111In]In-22): 65.8% | logD [4]: −3.26 ± 0.05 | Stability in Mouse Serum (%) ([5]; 24 h post-incubation, 37 °C, indium-111 labeled, intact fraction): 95.1% | Proteolytic degradation ([5]; mouse serum up to 24 h): No proteolytic degradation
